Tested on: 475296-252-R-J1-PDC spheroid viability
Assay: Anticancer human tumor 475296-252-R-J1-PDC patient-derived rectal carcinoma cell line growth inhibition [PI3K]
Details: spheroids with HUVEC and MSC; for IC50: curve of first compound; for viability, T/C: stronger effect = lower value
Procedure, shortened: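 Agents were dosed from a top concentration near clinical Cmax (otherwise 10 microM) in half-log decrements, alone or combined with PI3K inhibitors. The spheroids contain tumor cells plus endothelial (HUVEC) and MSC stroma; viability is measured.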
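Also: spheroids exposed to agents for seven days before readout.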

Cn1ncc(Cl)c1-c1cc(C(=O)NC(CN)Cc2cccc(F)c2)sc1Cl (configuration not stated) + CC(Nc1ccc2c(c1)OCCn1cc(N3C(=O)OCC3C(F)F)nc1-2)C(N)=O
IC50 (second compound 0.00316 µM): > 10 µM
IC50 (second compound 0.01 µM): > 10 µM
IC50 (second compound 0.0316 µM): > 10 µM
IC50 (second compound 0.1 µM): > 10 µM
IC50 (second compound 0.316 µM): > 10 µM
IC50 (second compound 1 µM): 5.46 µM
viability, T/C (second compound 0.00316 µM, first compound 0.0316 µM): 87.7%
viability, T/C (second compound 0.00316 µM, first compound 0.1 µM): 68.7%
viability, T/C (second compound 0.00316 µM, first compound 0.316 µM): 76.2%
viability, T/C (second compound 0.00316 µM, first compound 1 µM): 63.4%
viability, T/C (second compound 0.00316 µM, first compound 3.16 µM): 65%
viability, T/C (second compound 0.00316 µM, first compound 10 µM): 67.6%
viability, T/C (second compound 0.01 µM, first compound 0.0316 µM): 105%
viability, T/C (second compound 0.01 µM, first compound 0.1 µM): 78.6%
viability, T/C (second compound 0.01 µM, first compound 0.316 µM): 74.1%
viability, T/C (second compound 0.01 µM, first compound 1 µM): 73%
viability, T/C (second compound 0.01 µM, first compound 3.16 µM): 73.8%
viability, T/C (second compound 0.01 µM, first compound 10 µM): 70.5%
viability, T/C (second compound 0.0316 µM, first compound 0.0316 µM): 92.6%
viability, T/C (second compound 0.0316 µM, first compound 0.1 µM): 88.1%
viability, T/C (second compound 0.0316 µM, first compound 0.316 µM): 63.7%
viability, T/C (second compound 0.0316 µM, first compound 1 µM): 67.4%
viability, T/C (second compound 0.0316 µM, first compound 3.16 µM): 52.8%
viability, T/C (second compound 0.0316 µM, first compound 10 µM): 60.5%
viability, T/C (second compound 0.1 µM, first compound 0.0316 µM): 90.7%
viability, T/C (second compound 0.1 µM, first compound 0.1 µM): 104%
viability, T/C (second compound 0.1 µM, first compound 0.316 µM): 86.1%
viability, T/C (second compound 0.1 µM, first compound 1 µM): 69.3%
viability, T/C (second compound 0.1 µM, first compound 3.16 µM): 59.4%
viability, T/C (second compound 0.1 µM, first compound 10 µM): 52.9%
viability, T/C (second compound 0.316 µM, first compound 0.0316 µM): 90.7%
viability, T/C (second compound 0.316 µM, first compound 0.1 µM): 94.3%
viability, T/C (second compound 0.316 µM, first compound 0.316 µM): 85.7%
viability, T/C (second compound 0.316 µM, first compound 1 µM): 69.5%
viability, T/C (second compound 0.316 µM, first compound 3.16 µM): 72.8%
viability, T/C (second compound 0.316 µM, first compound 10 µM): 51.5%
viability, T/C (second compound 1 µM, first compound 0.0316 µM): 92.3%
viability, T/C (second compound 1 µM, first compound 0.1 µM): 79%
viability, T/C (second compound 1 µM, first compound 0.316 µM): 84.1%
viability, T/C (second compound 1 µM, first compound 1 µM): 76.1%
viability, T/C (second compound 1 µM, first compound 3.16 µM): 62%
viability, T/C (second compound 1 µM, first compound 10 µM): 36.6%
